Drawing on PubChem BioAssay AID540258 (Broad Institute, 2011), this text covers AC40 for 110 compounds.

Active and inactive are the calls of the source.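 Rule for the calls: active = fitted curve reaching 40% activation at or below the top valid dose tested; inconclusive = flat curve at 30 to 70% activation, or poor fit; inactive = the rest.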 A value given as a limit tells only on which side of the number the result lay.

The test system of this experiment is SK-MEL-5 TRPM1 promoter luciferase reporter, 24 h. In words: MITF activators via TRPM1 promoter reporter, dose response, SK-MEL-5 cells, luciferase, cherry-pick samples (AID 540258).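 Note: potency for activators that raise TRPM1 promoter luciferase signal.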
Turning to `O=C(Cc1cccs1)NCc1ccc(Cl)cc1Cl`, the AC40 was 5.59 µM.

As for `Cc1ccc(-n2nc3ccc(NC(=O)C(C)C)cc3n2)cc1`, the AC40 was 0.555 µM. The value for `CCN1CCN(c2cc3c(nn2)Oc2ccccc2N3C)CC1` was 5.84 µM. `Clc1ccc(-c2cnnc(-c3ccccn3)n2)cc1`: the AC40 is 1.71 µM. With `CC(=O)c1sc(N/N=C/c2cccc(O)c2)nc1C`, the AC40 was 2.67 µM. Take `COc1ccc(C(=O)Nc2cc3c4c(c2)CC(=O)N4CCC3)c(OC)c1`: the AC40 was 6.24 µM. The value for `CCC(=O)Nc1ccc(-c2ccc(N3CCC(C)CC3)nn2)cc1` was 4.63 µM. Turning to `C/C(=C\C(=O)c1cccnc1)Nc1ccc(C)c(C)c1`, the AC40 is 6.87 µM.

With `N/C(=N\OC(=O)C12CC3CC(CC(C3)C1)C2)c1ccccn1`, the AC40 was 8.23 µM. The value for `CCC(C)NC(=O)c1cn(-c2cccc(C)n2)cn1` (stereo not given) was 10.6 µM. In the case of `O=C(NC1CCCCCC1)c1cc2c(=O)n3ccccc3nc2s1` it was 8.63 µM; in that of `Cc1csc(NC(=O)Cc2c[nH]c3ccccc23)n1`, 27.3 µM; in that of `COC(=O)C1CCCCN1C(=O)c1ccc2oc(Cc3ccccc3)nc2c1` (stereo not given), 3.18 µM. In the case of `COc1cccc2cc(CC(=O)c3ccc(C)cc3C)c(=O)oc12` it was 11.9 µM; in that of `COC(=O)/C(=C1\Oc2ccc(C(C)(C)C)cc2S1)C(F)(F)F`, 3.81 µM. Regarding `Cc1ccsc1/C=N/NC(=O)Nc1ccccc1`, the AC40 was 1.07 µM. The value for `O=C1CCCc2nc3c(cc21)C(O)Oc1c-3ccc2ccccc12` (stereo not given) was 1.52 µM; that for `COc1cc(OC)c2c(-c3cccc(/C=C/c4ccc(F)cc4)c3)cc(=O)oc2c1` was 6.95 µM. The value for `CCCCSc1nsc(NC(C)=O)n1` was 1.28 µM. The value for `O=C1c2ccccc2C(=O)N1CCc1c[nH]c2ccccc12` was 2.19 µM.

Take `Cn1c(-c2ncc(F)cc2F)cc2onc(-c3c(F)cccc3Cl)c2c1=O`: the AC40 is > 35 µM (inactive). The value for `Cc1cc(C(=O)Cn2nc(C(=O)O)c3ccccc3c2=O)c(C)n1CC(F)(F)F` was 9.43 µM. In the case of `O=C(c1cc(COc2ccc(F)cc2Cl)on1)N1CCCCCC1` it was 1.67 µM; in that of `c1ccc2oc(-c3ccc4nc[nH]c4c3)nc2c1`, 0.866 µM; in that of `Cc1ccc(N(C)/N=C/c2ccc(Cl)cc2Cl)nn1`, 34.2 µM.

`COc1ccc2oc(=O)c(C(=O)N3CCN(c4ccccc4C)CC3)cc2c1`: the AC40 was 8.14 µM. The value for `CCCc1nc2ccc(NC(C)=O)cc2c(=O)n1Cc1ccc(Cl)cc1` was 2.92 µM; that for `CCN(CC)C(=O)c1cc(-c2ccc(Br)cc2)on1` was 1.63 µM.

Turning to `c1ccc(CSc2ccc(-c3ccc4c(c3)OCO4)nn2)cc1`, the AC40 is 2.38 µM. `COC(=O)c1c(-c2ccc(S(C)(=O)=O)cc2)sc2ccc(OC)cc12`: the AC40 is 2.76 µM. The value for `CN(C(=O)c1cc(-c2ccccc2)on1)C1CCCCC1` was 1.12 µM; that for `Cc1ccc(/C=N/Nc2ccc(Cl)nn2)cc1` was 1.93 µM.

For the compound `COc1cc(/C=C2\SC(=S)N(Nc3ccccc3)C2=O)ccc1O`, the AC40 is 3.01 µM. The value for `Nc1nc(COc2ccc3ccccc3c2)cs1` was 4.97 µM. For `COC(=O)c1c(C)[nH]c(/C=N/Nc2ccccc2)c1C`, the AC40 is > 35 µM (inactive). In the case of `NC(=O)c1cnn(-c2cc(Oc3ccccc3)ncn2)c1N` it was 2.88 µM; in that of `Oc1ccc(/C=N/Nc2cccc(Cl)n2)c(O)c1`, 0.584 µM; in that of `CCn1c(/C=C/c2c[nH]c3ccccc23)nc2ccccc2c1=O`, 0.583 µM. In the case of `COc1ccc(-c2cn3cccc(C)c3n2)cc1F` it was 0.565 µM. The value for `CC(C)c1ccc(N=C2NN=C(c3cccs3)CS2)cc1` was 0.547 µM. Take `COc1cccc(/C(C)=N/N=C(\C)c2cccc(OC)c2)c1`: the AC40 is 3.27 µM. As for `COc1ccc(C(=O)NN/C(=N/S(=O)(=O)c2ccc(C)cc2)c2ccccc2)cc1`, the AC40 was 1.48 µM. The value for `O=C(NC1=NCCS1)c1ccc(Cl)s1` was 2.64 µM; that for `COc1ccc(/C=N/Nc2nccnc2Cl)c(OC)c1` was 2.68 µM. For the compound `Nc1nc(-c2cc(-c3ccccc3)no2)cs1`, the AC40 was 0.331 µM. The value for `CC(C)(C)c1ccc(-c2cc(C(=O)NNC(=O)Nc3ccccc3)c3ccccc3n2)cc1` was 3.33 µM.

Take `COc1ccc(C(=O)CN2Cc3ccccc3C2=N)cc1`: the AC40 is 4.86 µM. In the case of `COc1cc(C=O)ccc1OCc1cccc(Br)c1` it was 5.93 µM; in that of `COc1ccc(-c2cc(C(=O)Nc3ccccc3F)on2)cc1`, 2.53 µM. The value for `Nc1nonc1-n1nnc(C(=O)N/N=C/c2ccc(OCc3ccccc3F)cc2)c1CN1CCCCC1` was 17.1 µM. The value for `Cc1ccc(NC(=O)C(=O)NCc2ccccn2)cc1` was 16.4 µM; that for `CC1CCN(C(=O)Nc2ccc3nsnc3c2)CC1` was 13.7 µM. For `Cc1nc(N2CCN(S(=O)(=O)c3ccccc3)CC2)c2cc(-c3ccccc3)sc2n1`, the AC40 was 22.9 µM.

For the compound `Nc1nc(CSc2ccccn2)nc(Nc2ccccc2)n1`, the AC40 was 1.31 µM. For the compound `O=c1c(-c2nc3ccccc3s2)cccn1Cc1ccccc1`, the AC40 was 0.945 µM. The value for `Cc1ccc(Nc2cc(C)nc(-c3ccccc3)n2)cc1` was 2.33 µM; that for `COc1ccc(/C=C2\SC(=O)N(CCNC(=O)C3CC4C=CC3C4)C2=O)cc1` (stereo not given) was 1.39 µM. As for `COc1ccc2cc(C(N)=O)c(=Nc3ccccc3)oc2c1`, the AC40 was 4.54 µM.

Regarding `O=C(NCCC1=CCCCC1)NC12CC3CC(CC(C3)C1)C2`, the AC40 was 0.703 µM. In the case of `Cc1nn2cc(-c3ccc(Cl)cc3)cnc2c1Cl` it was 8.04 µM; in that of `CCCCN1C(=O)/C(=C2\SC(N3CCCCC3)=NC2=O)c2ccccc21`, 3.23 µM; in that of `c1ccc2c(-c3csc(-c4ccncc4)n3)c[nH]c2c1`, 2.93 µM. The value for `CCc1ccc(-c2cn3nc(-c4ccccc4)cnc3n2)cc1` was > 35 µM (inactive); that for `Cc1nn(C(=O)c2cccs2)c(N)c1-c1ccccc1` was 1.38 µM. The value for `Cn1ccs/c1=N\C(=O)Nc1ccccc1` was 1.59 µM. For `Cc1cc(CNC(=O)c2cc(COc3ccc(F)c(F)c3)on2)nn1C`, the AC40 was 3.37 µM. Take `Cc1cc(C(=O)CN2C(=O)NC3(CCCCC3C)C2=O)c(C)n1Cc1cccs1` (stereo not given): the AC40 was 8.17 µM.

For `Cc1nc(COC(=O)c2c(C)nn(-c3ccccc3)c2C)cs1`, the AC40 was 21.1 µM.

Take `Cc1cc2c([nH]c3ccccc32)c2c1OC(C)(C)C=C2`: the AC40 is 3.8 µM. For `CN(C)S(=O)(=O)c1cccc(-c2nnc(-c3ccccc3)o2)c1`, the AC40 was 8.86 µM. Take `CC(C)C(=O)Nc1cccc(-c2cnc3ccccc3n2)c1`: the AC40 is 17.3 µM.

As to `CC(=O)c1cccc(NC(=O)c2cc3nc(C)cc(C)n3n2)c1`, the AC40 is 2.7 µM. The value for `O=C(NCC1CC1)Nc1ccc(Cl)cc1` was 12.9 µM. In the case of `O=C1OC(c2ccccc2)=C/C1=C/N1CCCCC1`, the AC40 is 2.12 µM. The value for `CCc1ccc2[nH]c3nc(C)cc(C)c3c(=O)c2c1` was 4 µM. Take `CN(N=O)c1ccc(CC2CCc3ccccc32)cc1` (stereo not given): the AC40 was 12.6 µM. The value for `Cc1nn(CC(C)C)c(Cl)c1C(=O)NC1CCC(C)CC1` (stereo not given) was 2.63 µM.

`Cc1cccc(-c2noc(Cc3ccccc3)n2)c1`: the AC40 is 2.93 µM. The value for `c1cnc(Nc2nc(-c3ccc4ccccc4c3)cs2)nc1` was 0.516 µM; that for `Nc1ccccc1N=Nc1ccccc1N` was 27 µM. In the case of `CN1CCN(/N=C/c2ccc(Br)cc2)CC1` it was 6 µM; in that of `Cc1ccc(S(=O)(=O)Nc2cccc(-c3ccc(N4CCCCCC4)nn3)c2)cc1`, 4.9 µM; in that of `COc1ccc(/C=N/Nc2snc(SC)c2C#N)cc1OC`, 4.29 µM. Consider `O=C(NCCc1c[nH]c2ccccc12)c1cc(Cl)c2c(c1)OCO2`, for which the AC40 is 17 µM.

With `COc1ccc(NC(=S)c2ccccc2)cc1`, the AC40 was 3.97 µM. In the case of `CCc1cccc(NC(=O)c2sc3nc4n(c(=O)c3c2C)CCC4)c1` it was 4.55 µM; in that of `CC(=O)c1ccc2c(c1)Cc1cc(C(C)=O)ccc1-2`, 1.19 µM; in that of `Nc1ccc(C#Cc2ccc3c(=O)c4ccccc4oc3c2)cc1`, 4.44 µM. In the case of `Cc1ccc(C2=NN(S(C)(=O)=O)C(c3cccs3)C2)cc1` (stereo not given) it was 2.09 µM; in that of `CCCn1nnc2sc3c(c2c1=O)CCC(C)C3` (stereo not given), 3.32 µM. In the case of `COc1ccc2cc(-c3nc4ccccc4n3C)c(=O)oc2c1` it was 1.92 µM; in that of `CC(C)Cc1cc(C(=O)Nc2ccc(Br)cc2)no1`, 1.8 µM.

With `COc1cc(CNCc2ccccn2)ccc1OCc1ccc(Cl)c(Cl)c1`, the AC40 is 9.74 µM. In the case of `COc1cccc2[nH]c(=O)c(-c3ccccc3)cc12` it was 1.72 µM; in that of `COc1ccc(/C=N/N=C2/SCC(=O)N2Cc2ccccc2)cc1`, 2.67 µM. Consider `O=C1c2ccccc2/C(=C\C#Cc2ccccn2)N1c1ccccc1`, for which the AC40 was 3.93 µM.

Regarding `Cc1ccc(CNc2nc(C)cs2)cc1`, the AC40 is 1.05 µM.

As for `Cc1ccccc1S(=O)(=O)/N=C(/Nc1nc2ccccc2s1)c1ccccc1`, the AC40 is 31 µM.

`COc1ccc2c(c1OC)C(=O)N(c1ccc(C)cc1)C2`: the AC40 was 12.3 µM.

For `O=C(Cc1ccccn1)c1ccc(Cl)cc1`, the AC40 was 1.98 µM.

As for `COc1ccc(/C=C2\OC(=O)c3c(OC)cccc32)cc1OC`, the AC40 is 0.998 µM. In the case of `Oc1ccc(N=Nc2ccccc2)cc1` it was 3.98 µM; in that of `Cc1nc(NC(C)C)c2cnn(CCc3ccccc3)c2n1`, 7.11 µM; in that of `O=C(Nc1ccc(OC(F)F)c(Cl)c1)c1ccccn1`, 0.461 µM. As for `Cc1ccc2c(c1N)C(=O)c1ccccc1C2=O`, the AC40 was 3.96 µM. `CCS(=O)(=O)c1ccc2oc(Nc3ccccc3C)nc2c1`: the AC40 was 3.65 µM. In the case of `O=C(Nc1ccccc1)c1ccc(-c2ccccc2)s1` it was 0.95 µM; in that of `CCCC(=O)Nc1ccc(C#Cc2ccccc2)cc1`, 1.63 µM.

On to `Cc1noc(N)c1C(=O)Nc1ccc(C(C)(C)C)cc1`, for which the AC40 is 1.66 µM.

As to `O=C1/C(=C/c2cccnc2)CCc2c1[nH]c1ccccc21`, the AC40 was 6.49 µM.
